Experimental data from publication PMC10449632, “Structural basis for translation inhibition by the glycosylated drosocin peptide” (Nature Chemical Biology, 2023).
No end group written: not given here. *: point of attachment. αGalNAc = CC(=O)N[C@@H]1[C@@H](O)[C@@H](O)[C@@H](CO)O[C@@H]1*

What was measured:
[1] = test system: E. coli Keio ∆sbmA (BW25113 ΔsbmA); assay: Antibiotic susceptibility (growth) assay, E. coli Keio ΔsbmA; format: cell-based, Escherichia coli; details: 30 μM peptide, average of three biological replicates
Excerpt: Many PrAMPs use the SbmA transporter to pass through the E. coli inner membrane[4],[10],[31]; however, whether drosocin also uses SbmA remains, to our knowledge, unknown. To address this, we monitored the effect of the presence of diverse drosocin peptides (Fig. 1a,b and Supplementary Fig. 1a) on the growth of the wild-type E. coli strain BW25113 containing SbmA or lacking SbmA (ΔsbmA) (Fig. 1c,d). We compared unmodified drosocin (Dro) with various modified forms (Fig. 1a,b). The modified forms included the naturally occurring Dro1 and Dro2 that carry either a monosaccharide (α-D-GalNAc) or disaccharide (β-D-Gal(1→3)-α-D-GalNAc) attached to Thr11, respectively (Fig. 1b). In addition, we examined the previously reported[23],[24] drosocin derivatives bearing β-D-Maltosyl (Dro3), α-D-GlcNAc (Dro4), β-D-Gal (Dro5), β-D-Glc (Dro6), β-D-Lactosyl (Dro7) and β-D-Cellobiosyl (Dro8) modifications on Thr11 (Fig. 1a,b and Supplementary Fig. 1a). Finally, we also included in our analysis the synthetic unmodified drosocin derivative with proline substitutions at positions 7, 11 and 12 (Dro-3P) (Fig. 1a), which was previously reported to have similar antimicrobial activity to the monosaccharide form of drosocin[25]. Growth was monitored in both rich (LB) and minimal medium in the presence of 30 μM of each peptide and normalized with the growth in the absence of the compounds (Methods). […] We also observed no inhibition for Dro2 nor for any of the β-linked disaccharides (Dro3, Dro6 or Dro7). […] By contrast, all drosocin peptides inhibited growth of the E. coli BW25113 strain in minimal medium, albeit to different extents (Fig. 1d).
(§1) Strains E. coli Keio wild-type and E. coli Keio ΔsbmA used from the Keio knockout collection (Horizon, https://horizondiscovery.com). Wild-type E. coli SQ110 (ΔrrnGADBHC(ptRNA67))[47] and SQ171 (ΔrrnGADEHBC(pKK3535, ptRNA67))[47] strains and related mutants E. coli SQ110 A2059G and E. coli SQ171 A2503G were obtained from the previous Api137 study. E. coli strains SQ171 bearing A752G, U2609C and A752G:U2609C mutations[43] and E. coli SQ171 U2609G[48] were generated previously.
(§2) The susceptibility of E. coli strains to compounds was evaluated by monitoring the bacterial growth in presence of increasing concentrations of the compound of interest. In brief, bacteria were inoculated in a total volume of 100 μl of medium contained in a well of a 96-well microplate (round bottom, with cap, sterile; Sarstedt). The medium used was either LB, as rich medium, or ATCC medium (778 Davis and Mingioli glucose minimal medium), as minimal medium. Before inoculation, bacteria were grown up to exponential phase and then inoculated into the culture mix, containing selective antibiotic if necessary, with an initial optical density at 600 nm (OD600) of 0.05. Values measured from wells containing just the medium were used as a blank. The growth in each well was monitored by measuring the OD600 every 10 minutes for a total of 20 hours at 37 °C with shaking using a plate reader (Tecan Infinite 200 PRO). The inhibition resulting from a compound’s concentration was evaluated by normalizing the OD600 at t = 12 hours (corresponding to the end of the log phase) from the treated culture to the untreated one. For each compound, the concentrations tested were 5 μM, 10 μM and 30 μM. Each single titration assay was done in triplicate with individually prepared culture mixes. For each concentration, the standard deviation was calculated, taking into account each single replica and its specific technical error from the plate reader.

E. coli SQ171 A752G = assay: Antibiotic susceptibility (growth) assay, E. coli SQ171 A752G; format: cell-based, Escherichia coli; details: relative to no compound, mean of 3 replicas
Excerpt: (§3) In addition, we also used a strain with a U2609C–A752G double mutation, which would be predicted to restore Watson–Crick base pairing, and with three hydrogen bonds could possibly make breaking the base pair harder than with the canonical two hydrogen bonds for the A–U base pair. As a control, we also tested Dro that lacks the α-D-GalNAc modification, which we predict (assuming that Dro binds analogously to Dro1) should not interact with U2609 and, therefore, not be influenced by the conformation of the U2609–A752 base pair.
as §1, §2

E. coli SQ171 U2609G = assay: Antibiotic susceptibility (growth) assay, E. coli SQ171 U2609G; format: cell-based, Escherichia coli; details: relative to no compound, mean of 3 replicas
Excerpt: as §3, §1, §2

E. coli SQ171 U2609C = assay: Antibiotic susceptibility (growth) assay, E. coli SQ171 U2609C; format: cell-based, Escherichia coli; details: relative to no compound, mean of 3 replicas
Excerpt: as §3, §1, §2

[2] = test system: ribosomes at the stop codon of MLIF-UAA mRNA in the presence of RF1; assay: Toeprinting assay on MLIF*-mRNA with RF1; format: biochemical, Escherichia coli; details: for Relative stop band intensity signal: 30 μM compound, MLIF*-mRNA, plotted values; for stalling of ribosomes at the stop codon: toeprinting, 30 μM peptide, 1× or 10× RF1 (trend also with ten-fold RF2)
Experimental: To ascertain which step during protein synthesis is affected by drosocin, we performed toeprinting assays, where reverse transcription is used to monitor the position of ribosomes on a defined mRNA[34].
Toeprinting reactions were performed as described previously. In brief, reactions were performed with 6 μl of PURExpress ΔRF123 in vitro protein synthesis system (NEB) in the presence of 1× RF3 and either 1× or 10× of RF1 or RF2 (relative to the manufacturer’s recommendation). The reactions were carried out on an MLIF-UAA-toeprint template (5′-[…]-3′, ORF start codon and stop codon are underlined bold), containing T7 promoter, a ribosome binding site, an MLIF-coding ORF and the NV1* primer binding site. The template is a version of the ErmBL template with a truncated ORF and addition of a isoleucine coding codon at the third position in the ORF. The template was generated by polymerase chain reaction of two overlapping 77-nt- and 78-nt-long primers. The reactions contained 30 ng of the MLIF-UAA-toeprint DNA template. The reactions were supplemented with Api137, thiostrepton or one of the drosocin derivates as specified. The transcription–translation reactions were incubated for 15 minutes at 37 °C. The reverse transcription on the MLIF-short-UAA toeprint template was carried out using AMV RT and primer NV*1-Alexa 647 (5′-[…]-3′). The transcription–translation reactions were incubated with AMV RT and NV*1-Alexa 647 for 20 minutes at 37 °C. mRNA degradation was carried out by the addition of 1 µl of 5 M NaOH. The reactions were neutralized with 0.7 µl of 25% HCl, and nucleotide removal was performed with the QIAquick Nucleotide Removal Kit (Qiagen). The samples were dried under vacuum for 2 hours at 60 °C for subsequent gel electrophoresis. The 6% acrylamide gels were scanned on a Typhoon scanner (GE Healthcare).

Substance	Average of normalized growth ([1]; LB rich medium)	Average of normalized growth ([1]; Minimal medium)	OD600 at t = 12 h, Normalized, Average (E. coli SQ171 A752G; 5 μM)	OD600 at t = 12 h, Normalized, Average (E. coli SQ171 A752G; 30 μM)	OD600 at t = 12 h, Normalized, Average (E. coli SQ171 U2609G; 5 μM)	OD600 at t = 12 h, Normalized, Average (E. coli SQ171 U2609G; 30 μM)	OD600 at t = 12 h, Normalized, Average (E. coli SQ171 U2609C; 5 μM)	OD600 at t = 12 h, Normalized, Average (E. coli SQ171 U2609C; 30 μM)	Relative stop band intensity signal ([2]; Fig 1f, RF1 (1X))	Relative stop band intensity signal ([2]; Fig 1g, RF1 (10X))	stalling of ribosomes at the stop codon [2]
Dro1: naturally occurring drosocin carrying monosaccharide α-D-GalNAc attached to Thr11 (GKPRPYSPRPT(αGalNAc)SHPRPIRV; UniProt P36193 22-40, looked up)	99%	106%	70%	7%	50%	8%	40%	5%	0.3782	0.6764	strongest stalling
Dro: unmodified drosocin, 19 amino acid proline-rich antimicrobial peptide lacking O-glycosylation (GKPRPYSPRPTSHPRPIRV; Drosocin; UniProt P36193 22-40, looked up)	102%	102%	84%	59%	87%	59%	92%	71%	0.2211	0.4823	good activity
